Test results reported in patent EP0018189B1 (priority 1979, dated 1980).

What was measured:
[1] = tested on: poliomyelitis vaccines (Types 1, 2 and 3): Type 1; set-up: species or system guinea pigs; details: guinea pig, in vivo
[2] = tested on: poliomyelitis vaccines (Types 1, 2 and 3): Type 2; format: in vivo; details: guinea pigs
[3] = tested on: poliomyelitis vaccines (Types 1, 2 and 3): Type 3; format: in vivo; details: guinea pigs
[4] = undiluted, 1/10 and 1/100 dilutions, determined by comparison of ED50

Structure (SMILES): CCCCCCCCCCCCCCCCCCOC(=O)[C@@H](N)Cc1ccc(O)cc1 [octadecyl tyrosine]
- Potency Relative to Unadsorbed Vaccine, Type 1 [1]: 13.8
- factor more potent than the vaccine containing aluminum phosphate, type 1 [1]: 5.2
- factor more potent than the vaccine containing aluminum phosphate, type 2 [2]: 1.9
- Potency Relative to Unadsorbed Vaccine, Type 2 [2, 4]: 3.2
- factor more potent than the vaccine containing aluminum phosphate, type 3 [3]: 1.4
- Potency Relative to Unadsorbed Vaccine, Type 3 [3, 4]: 8.5
